Assay results as given in publication PMC10286459 (Cell & Bioscience, 2023).
Non-standard residues stand in square brackets, D forms with d. Residues, ends and D or L forms follow the SMILES beside them.

Assays:
[1] = tested on: MDA-MB-231 engrafted tumors; test: MDA-MB-231 tumor-engrafted BALB/c nude mice
Description: F BALB/c nude mice (female, 6 weeks old) were subcutaneously injected with MDA-MB-231 cells (1 × 10^6 cells/mouse). […] The volume of engrafted tumors was measured every two days and growth curves were obtained at the end of the experiment. The tumor volume (V) was calculated by: V = length × diameter^2 × 1/2. G Images and weight of engrafted tumors on Day 19. […] Number of repetitions = 3.
BALB/c nude mice and BALB/c wild-type mice (female, 6 weeks old) were purchased from Hunan SJA Laboratory Animal Co., Ltd. (Changsha, China). […] BALB/c nude mice were injected subcutaneously with MDA-MB-231 cells (1 × 10^6 cell/mouse). […] Tumor size was measured every two days. The tumor volume (V) was calculated by: V = length × diameter^2 × 1/2. Cancer tissue from the animals was harvested for imaging and weighing on Day 19.
B The lysates of the harvested cancer tissues were obtained and the protein levels of FOXM1, CDC25B, and PLK1 were detected by Western blotting. β-actin was used as a loading control. ImageJ software was used to calculate the gray value of the bands, and each point represented the value of protein content in the samples.

[2] = In vivo imaging of distribution of ICG-labeled peptide; design: species or system mouse; details: ICG-labeled M1-21, 30 mg/kg tail vein, wild-type ICR/JCL mice; IVIS imaging 0.5-24 h
[3] = biological target: truncated FOXM1 recombinant proteins tagged by GST (Homo sapiens, UniProt Q08050); test: Pulldown of GST-tagged truncated FOXM1 recombinant proteins; details: Biotin-M1-21 20 µM, recombinant protein 100 µg; Ponceau S
Target sequence in this assay (Q08050 703-763): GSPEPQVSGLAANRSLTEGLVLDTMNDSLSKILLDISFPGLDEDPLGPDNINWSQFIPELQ
Description: (§2) The recombinant proteins in the samples were separated by PAGE-gel and detected with Ponceau S staining solution (marked by *). 10% of recombinant proteins (10 µg) were used as input controls. […] Experiments were repeated three times with similar results. C Reporter plasmids containing the luciferase gene downstream of the 6×FOXM1 binding sequence (6×FOXM1 Binding-Luc, 0.4 µg) or the − 1.8 kb CDC25B promoter (CDC25B pro(-1.8 kb)-Luc, 0.4 µg) were co-transfected with pCMV-FOXM1 (0.6 µg) into HEK-293T cells, plus pRL-CMV plasmid (20 ng/well) as a loading control. […] Then cell lysates were prepared and used for the measurement of dual Luciferase activities. Number of repetitions = 3. […] Cell lysates (500 µg) were extracted and incubated with anti-Flag magnetic beads to pull down Flag-FOXM1/proteins complexes. The levels of Flag-FOXM1 and PLK1 proteins in the samples were detected by Western blotting. 5% of cell lysates (25 µg) were used as input controls. E Flag-FOXM1, LIN9, and B-MYB protein levels in panel D samples were detected by Western blotting. F Reporter plasmids containing the luciferase gene downstream of the − 1.4 kb PLK1 promoter (PLK1 pro(-1.4 kb)-Luc, 0.4 µg) were co-transfected with pCMV-FOXM1 (0.6 µg) into HEK-293T cells, plus pRL-CMV plasmid (20 ng/well) as loading control. […] Then cell lysates were prepared and used to measure dual Luciferase activity. Number of repetitions = 3. […] I TCF/LEF Binging-Luc reporter plasmid (0.4 µg) was co-transfected with pCMV-FOXM1 (0.6 µg) into HEK-293T cells, plus pRL-CMV plasmid (20 ng/well) as loading control. […] Then cell lysates were prepared and used to measure dual Luciferase activity. Number of repetitions = 3. […] The mRNA levels of PLK1, CDC25B, and Vimentin (VIM) were measured by qPCR. GAPDH was used as a loading control. […] The protein levels of PLK1, CDC25B, and Vimentin (VIM) were measured by Western blotting. β-actin was used as a loading control.
(§3) The magnetic beads were rinsed 5 times with pre-cooled 1×PBS, then the protein loading buffer was added, and the proteins were denatured at 95°C for 10 minutes. […]

[4] = biological target: truncated FOXM1 recombinant proteins tagged by GST (Homo sapiens, UniProt Q08050); test: as above; details: Biotin-M1-21 20 µM, recombinant protein 100 µg; Ponceau S; remark: listed apart in the source
Target sequence in this assay (Q08050 221-353 isoform Q08050-2): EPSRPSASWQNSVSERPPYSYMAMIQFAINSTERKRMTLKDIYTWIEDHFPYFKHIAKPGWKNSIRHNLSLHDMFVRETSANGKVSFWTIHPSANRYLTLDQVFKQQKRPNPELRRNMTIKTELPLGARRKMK
Description: as §2, §3

[5] = biological target: truncated FOXM1 recombinant proteins tagged by GST (Homo sapiens, UniProt Q08050); test: as above; details: Biotin-M1-21 20 µM, recombinant protein 100 µg; Ponceau S; remark: listed apart in the source
Target sequence in this assay (Q08050 1-138): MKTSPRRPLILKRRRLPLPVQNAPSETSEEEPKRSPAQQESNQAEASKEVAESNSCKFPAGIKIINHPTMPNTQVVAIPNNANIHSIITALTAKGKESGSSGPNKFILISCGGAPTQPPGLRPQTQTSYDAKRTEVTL
Description: as §2, §3

[6] = tested on: − 1.4 kb promoter of PLK1; test: Dual luciferase reporter, CHR-containing promoter; details: HEK-293T, PLK1 pro(-1.4 kb)-Luc with pCMV-FOXM1; 5, 10, 20 µM for 24 h; n = 3
Description: C Reporter plasmids containing the luciferase gene downstream of the 6×FOXM1 binding sequence (6×FOXM1 Binding-Luc, 0.4 µg) or the − 1.8 kb CDC25B promoter (CDC25B pro(-1.8 kb)-Luc, 0.4 µg) were co-transfected with pCMV-FOXM1 (0.6 µg) into HEK-293T cells, plus pRL-CMV plasmid (20 ng/well) as a loading control. […] Then cell lysates were prepared and used for the measurement of dual Luciferase activities. Number of repetitions = 3. […] F Reporter plasmids containing the luciferase gene downstream of the − 1.4 kb PLK1 promoter (PLK1 pro(-1.4 kb)-Luc, 0.4 µg) were co-transfected with pCMV-FOXM1 (0.6 µg) into HEK-293T cells, plus pRL-CMV plasmid (20 ng/well) as loading control. […] Then cell lysates were prepared and used to measure dual Luciferase activity. Number of repetitions = 3.
HEK-293T cells (1×10^5 cells/well in 12-well plates) were transfected (EZ Trans, LIFE iLAB BIO, China) with certain luciferase reporter vectors (0.4 µg) and expression vector (0.6 µg) (or control plasmid (0.6 µg)). pRL-CMV plasmid (20 ng) was used as loading control for each transfection. 8 Hours after transfection, the medium was replaced and inhibitory peptides (or control peptide) with different concentrations were added. Finally, luciferase activity was measured 48 hours later with the Dual luciferase Assay system (Promega, USA) according to the manufacturer's instructions.

mouse Foxm1 = biological target: T1, mouse Foxm1 (Mus musculus, UniProt O08696); test: Biotin-peptide Pulldown in 4T1 cell lysates; type: binding; details: biotin-labeled, 20 µM, 4T1 cell lysates (500 µg); Fig. S18B
T1 construct: endogenous in cells; host or cells: 4T1 mouse breast cancer cell lysate
T1 sequence (O08696 whole entry): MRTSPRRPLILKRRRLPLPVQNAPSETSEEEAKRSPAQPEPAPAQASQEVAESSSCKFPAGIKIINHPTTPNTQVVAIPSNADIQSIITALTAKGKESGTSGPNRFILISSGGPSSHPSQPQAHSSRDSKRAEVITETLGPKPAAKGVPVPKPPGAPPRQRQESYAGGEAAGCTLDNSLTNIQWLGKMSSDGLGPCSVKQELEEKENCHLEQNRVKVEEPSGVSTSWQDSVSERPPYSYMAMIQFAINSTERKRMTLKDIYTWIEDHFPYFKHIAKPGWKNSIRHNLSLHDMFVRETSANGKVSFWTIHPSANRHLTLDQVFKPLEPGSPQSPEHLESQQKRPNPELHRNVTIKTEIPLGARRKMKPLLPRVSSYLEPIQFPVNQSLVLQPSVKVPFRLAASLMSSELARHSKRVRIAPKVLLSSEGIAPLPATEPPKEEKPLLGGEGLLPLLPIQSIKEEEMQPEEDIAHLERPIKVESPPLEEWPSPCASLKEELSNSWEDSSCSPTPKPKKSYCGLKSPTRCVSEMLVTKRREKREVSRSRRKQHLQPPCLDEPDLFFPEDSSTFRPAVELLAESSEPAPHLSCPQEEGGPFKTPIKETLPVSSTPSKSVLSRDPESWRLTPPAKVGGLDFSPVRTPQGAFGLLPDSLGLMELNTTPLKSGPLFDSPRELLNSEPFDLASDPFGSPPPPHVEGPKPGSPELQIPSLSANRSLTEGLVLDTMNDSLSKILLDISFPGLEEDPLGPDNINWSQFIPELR

4T1-Luc-GFP cells = test: 4T1-Luc-GFP metastasis tracing in wild-type BALB/c mice; details: 15 or 30 mg/kg intraperitoneal every two days
Description: D Wild-type BALB/c mice were tail-vein injected with 4T1-Luc-GFP cells (1 × 10^6 cells/mouse). […] E Different organs of representative mice were harvested on Day 21 and fluorescent imaging was performed as described above. F The D panel mouse survival statistic curves were obtained by the Mantel-Cox estimator with log rank test
Wild-type BALB/c mice were injected with 4T1-Luc-GFP cells (1 × 10^6 cells/mouse) via the tail vein. […] Different organs of representative mice were harvested on Day 21 for luminaire imaging. When the mice lost mobility and had difficulty eating, the mice were considered near death and terminated according to animal welfare. The survival statistic curve was obtained by the Mantel-Cox estimator with the log rank test.

MDA-MB-231 cells = test: mRNA and protein levels of marker and target genes (qPCR, Western blotting)
Description: The levels of mRNA or protein of E-cadherin (E-cad), Vimentin (VIM), and N-cadherin (N-cad) were measured by qPCR or Western blotting, respectively. GAPDH or β-actin was used as a loading control for mRNA or protein. mRNA values represented the mean ± SD of three replicates, and significance was calculated using unpaired t test. *P < 0.05; **P < 0.01; ***P < 0.001
The mRNA levels of PLK1, CDC25B, and Vimentin (VIM) were measured by qPCR. GAPDH was used as a loading control. […] The protein levels of PLK1, CDC25B, and Vimentin (VIM) were measured by Western blotting. β-actin was used as a loading control.
FOXM1 mRNA was detected by qPCR. GAPDH was used as a loading control.

MCF-10A cells = details: 0-50 µM, 72 h, trypan blue, Fig. S11
Description: 72 h Later, trypan blue staining (0.4%) was added to each well and incubated for another 3 min and the cells were fixed at 4% paraformaldehyde for imaging. The number of viable cells was counted by ImageJ software to calculate the cell viability of each well. The correspondence between cell viability and peptide concentration was plotted by GraphPad software.
After processing time, viable cells were counted by trypan blue staining (0.4% w/v). 3 Minutes later, cells incubated with the staining solution were washed and fixed at 4% paraformaldehyde for imaging. The number of viable cells was counted by ImageJ software to calculate the cell viability of each well. The relative cell viability versus the concentration of peptide was plotted and IC50 (µM) was calculated by GraphPad software.

FOXM1/DNA complex = FOXM1/DNA complex (Homo sapiens, UniProt Q08050); test: Electrophoretic Mobility Shift Assays (EMSAs); type: biochemical; details: recombinant FOXM1 2 µM, FAM-labeled DNA probe 50 nM, M1-21 0.5, 1, 2 µM
FOXM1/DNA complex, sequence (Q08050 1-748 isoform Q08050-2, one chain of several): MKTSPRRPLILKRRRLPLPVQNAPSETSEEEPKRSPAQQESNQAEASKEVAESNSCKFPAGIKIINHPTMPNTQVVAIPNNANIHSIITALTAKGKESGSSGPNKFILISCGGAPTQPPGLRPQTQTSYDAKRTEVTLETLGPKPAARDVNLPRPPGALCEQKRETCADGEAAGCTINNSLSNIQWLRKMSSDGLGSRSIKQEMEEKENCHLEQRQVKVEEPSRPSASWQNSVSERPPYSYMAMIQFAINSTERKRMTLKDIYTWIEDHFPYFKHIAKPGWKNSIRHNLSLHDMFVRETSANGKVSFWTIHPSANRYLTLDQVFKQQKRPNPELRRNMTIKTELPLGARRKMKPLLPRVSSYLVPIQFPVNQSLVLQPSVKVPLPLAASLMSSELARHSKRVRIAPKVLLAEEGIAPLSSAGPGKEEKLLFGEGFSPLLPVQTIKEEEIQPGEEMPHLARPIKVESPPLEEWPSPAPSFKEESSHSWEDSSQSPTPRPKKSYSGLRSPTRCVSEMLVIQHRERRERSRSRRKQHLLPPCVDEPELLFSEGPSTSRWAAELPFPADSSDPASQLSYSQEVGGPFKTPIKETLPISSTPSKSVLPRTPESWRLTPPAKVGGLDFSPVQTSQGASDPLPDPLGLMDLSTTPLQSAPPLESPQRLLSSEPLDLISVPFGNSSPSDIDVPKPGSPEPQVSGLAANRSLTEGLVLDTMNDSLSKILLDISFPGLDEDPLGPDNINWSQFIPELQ
Description: A FAM-labeled DNA probe (50 nM) was mixed with recombinant FOXM1 protein (2 µM) for EMSAs. […] The specificity of FOXM1/DNA complex formation was shown using 100× unlabeled DNA probes (cold probes, 5000 nM). Reactions were resolved in 4% native polyacrylamide gel electrophoresis in 0.5×TBE and visualized with a Kodak 4000 MM Imaging System (EX: 465 nm, EM: 535 nm). B The docking of P22 to FOXM1 DNA Binding domain (DBD, PDB ID 3G73) was created by Rosetta FlexPepDock and PyMOL. Left, the interface of peptide-protein interaction, peptide was shown in cyan and FOXM1 DBD was shown according to its electrostatic potential. Right, hydrogen bonds were formed by residues (blue from peptide and black from FOXM1 DBD) at the interface of peptide and protein interaction.
The double-strand DNA (dsDNA) probe was synthesized by Sangon Co., Ltd. (Shanghai, China). Protein (2 µM) was incubated with FAM-labeled dsDNA probe (50 nM) in binding buffer (20 mM Tris-Cl, 50 mM KCl, 0.5 mM EDTA, 0.2 mM DTT, 10% glycerol, pH 7.6) for 30 min on ice. […] The reactions were resolved in 4% native polyacrylamide gel electrophoresis in 0.5×TBE and visualized with Kodak 4000 MM Imaging System (Kodak, USA) (EX: 465 nm, EM: 535 nm for FAM). Sequence information is available in Supplementary Table S3.

[7] = H&E staining of organs after repeated injection; type: in vivo, mouse; details: ICR/JCL mice, 30 mg/kg intraperitoneal once every two days for three weeks
Description: (§1) One week later, the animals’ different organs were harvested and subjected to tissue sectioning and H&E staining. Photos were taken by inverted microscope (400×, Nikon TE2000). […] The mice’s diet and activity were observed continuously for 14 days. […] Water and PBS were used as hemolysis positive and negative controls, respectively. The absorbance of the samples was measured at 540 nm and used to calculate the Hemolysis rate % = [(OD Sample - OD Negative) / (OD Positive - OD Negative)] × 100%. E Immunogenicity analysis of M1-21. […] Blood samples were collected from mice at different time points (Week 2 to Week 8) and the absorption of anti-M1-21 antibody in serum (1:1000 dilution) was measured by ELISA. HRP-conjugated anti-mouse IgG was used as an ELISA secondary antibody.

[8] = Immunogenicity, ELISA of anti-M1-21 antibodies in serum; type: in vivo, mouse; details: ICR/JCL mice, 30 mg/kg/week × 4 weeks I.P., serum Week 2 to Week 8, 1:1000, ELISA 492 nm; except at Week 4
Description: as §1
Hemolysis assays were performed with fresh mouse blood collected and dispersed in normal saline (NaCl 0.9%) at 10% (v/v). […] Sterile double distilled water and PBS were used as positive and negative controls, respectively. Immunogenicity of M1-21 was detected by ELISA in mice. […] Blood samples were collected from mice at different time points (Week 2 to Week 8). […] ELISA plates were washed twice with PBS and blocked with 3% bovine serum albumin for 2 h. […] Absorption was measured at 492 nm.

[9] = biological target: FOXM1:LIN9 or FOXM1: B-MYB (Homo sapiens, UniProt Q08050); test: Co-IP in 231-Flag-FOXM1-Ind cells; details: 10, 20 µM for 6 h, dose-dependent
FOXM1:LIN9 or FOXM1: B-MYB, sequence (Q08050 1-748 isoform Q08050-2): as the sequence (Q08050 1-748 isoform Q08050-2, one chain of several) above
Description: Cell lysates (500 µg) were extracted and incubated with anti-Flag magnetic beads to pull down Flag-FOXM1/proteins complexes. […] 5% of cell lysates (25 µg) were used as input controls.
For Co-IP, IP lysate buffer was used to extract total protein. 500 µg protein lysates were incubated with 20 µl of Anti-Flag Magnetic Beads (Bimake, USA) for Flag-FOXM1 proteins at 4 °C for 3 h. The beads were washed 5 times with pre-cooled 1×PBS and subjected to Western blotting.

[10] = MDA-MB-231, 10 µM, 24 h, qPCR, Western blotting

CC[C@@H](C)[C@@H](NC(=O)[C@@H](CC(C)C)NC(=O)[C@H](NC(=O)[C@@H](CO)NC(=O)[C@@H](CS)NC(=O)CNC(=O)CNC(=O)[C@@H](C)NC(=O)[C@H]1CCCN1C(=O)[C@H](NC(=O)[C@@H](CCC(N)=O)NC(=O)[C@H]1CCCN1C(=O)[C@H]1CCCN1C(=O)CNC(=O)[C@@H](CC(C)C)NC(=O)[C@@H](CCCNC(=N)N)NC(=O)[C@H]1CCCN1C(=O)[C@@H](CCC(N)=O)NC(=O)[C@H](NC(=O)[C@H](N)CCC(N)=O)[C@H](C)O)[C@H](C)O)[C@H](C)CC)C(=O)N[C@H](Cc1ccccc1)C(=O)N[C@H](CCCNC(=N)N)C(=O)N[C@H](CCCNC(=N)N)C(=O)N[C@H](CCCNC(=N)N)C(=O)N[C@H](CCC(N)=O)C(=O)N[C@H](CCCNC(=N)N)C(=O)N[C@H](CCCNC(=N)N)C(=O)N[C@H](CCCCN)C(=O)N[C@H](CCCCN)C(=O)N[C@H](CCCNC(=N)N)C(=O)NCC(=O)O [M1-21] (H-[dQ][dT][dQ][dP][dR][dL]G[dP][dP][dQ][dT][dP][dA]GG[dC][dS][dI][dL][dI][dF][dR][dR][dR][dQ][dR][dR][dK][dK][dR]G-OH; N-terminus and C-terminus assumed)
size and weight of engrafted tumors at the end of the experiment ([1]; BALB/c nude mice, 30 mg/kg intraperitoneal once every two days, Day 19, n = 6): significantly decreased
growth of engrafted tumors (tumor volume) ([1]; BALB/c nude mice, 30 mg/kg intraperitoneal once every two days, n = 6, versus PBS): growth inhibition of engrafted tumors
levels of FOXM1, CDC25B and PLK1 in tumor samples ([1]; Western blotting of harvested cancer tissues, Fig. S12B): decreased levels
period of stay in the body (stability in mice) [2]: > 15 h
binding to GST-FOXM1_688-748 in Pulldown [3]: bound
binding to GST-FOXM1_221-353 in Pulldown [4]: bound
binding to GST-FOXM1_1-138 in Pulldown [5]: bound
FOXM1-MuvB-mediated stimulation on the CHR-containing promoter (luciferase) [6]: abolished FOXM1-MuvB-mediated stimulation
binding to endogenous mouse Foxm1 in Pulldown (mouse Foxm1): could bind
survival time of the animals (4T1-Luc-GFP cells; Mantel-Cox, log rank test): significantly prolonged
metastasis of 4T1-Luc-GFP cells (in vivo luciferase imaging) (4T1-Luc-GFP cells; n = 6 per group, Day 1, 7, 17, organs Day 21): prevented metastasis
levels of epithelial marker E-cadherin (MDA-MB-231 cells; [10]): increased
levels of mesenchymal markers Vimentin and N-cadherin (MDA-MB-231 cells; [10]): decreased
mRNA and protein levels of PCNA and Cyclin B1 (MDA-MB-231 cells; MDA-MB-231, 20 µM for 24 h, versus M1-21mut): downregulated
levels (mRNA or protein) of FOXM1 itself (MDA-MB-231 cells; MDA-MB-231, 20 µM, and spontaneously developed cancer tissues, Fig. S21): decrease the levels
mRNA and protein levels of CDC25B, PLK1 and Vimentin (MDA-MB-231 cells; MDA-MB-231, 20 µM, qPCR 24 h, Western blotting 1.5-36 h): dramatically repressed the expression
inhibition of normal breast epithelial cells, in words (MCF-10A cells): did not inhibit
DNA binding ability of FOXM1 (EMSA) (FOXM1/DNA complex): did not disturb
morphological lesions in heart, liver, spleen, lung, and kidney (H&E) [7]: no obvious morphological lesions
M1-21-specific antibody generation in serum [8]: relatively low levels
interaction of FOXM1:LIN9 or FOXM1: B-MYB (Co-IP) [9]: disrupted the interaction
